Source: patent publication US20220105218A1, “METHODS AND SYSTEMS FOR REDUCING A PATHOGEN POPULATION” (The Board of Trustees of the Leland Standford Junior …, priority 2019, published 2022)

Tested on: E. coli
Assay: Disinfection of E. coli-infected surfaces, SYTO9/PI confocal fluorescence microscopy
Assay type: cell-based
Conditions: on stainless steel, plastic and spinach leaf, 20 min treatment
Procedure: The efficacy of AquaROS as a disinfectant for reducing pathogen concentration was tested with three different surfaces infected with E. coli: stainless steel, plastic, and spinach leaf (cut from a single leaf as 1-cm×1-cm squares and washed 3× with distilled water and dried ambiently prior to E. coli deposition). For these experiments, E. coli was cultured in LB broth at 37° C. for approximately 16 hours. Using sterilized LB broth, the E. coli suspension was diluted to a concentration of 4.5×10^8 cells/mL, using a UV-vis spectrophotometer to monitor absorption at 600 nm. Infection of each surface was achieved by deposition of 10 μL of 4.5×10^8 cell/mL E. coli suspension followed by drying in a desiccator for approximately 10 min. AquaROS was applied by spraying pure water at 120 psi and at a height of 1.5 cm from the E. coli surface with a 10 μl/min flow rate for 20 min (FIG. 6). Control samples were treated by depositing 100 μL of 3% H2O2 and allowing it to react for 20 min at room temperature. Following treatment with AquaROS spray and 3% H2O2, 1 mL PBS 1× (pH 7.4) was added to the glass vial containing the treated material, swirled, then pipetted into a 1-mL Eppendorf tube. […]
FIG. 7 is a plot of E. coli death by AquaROS spray on the different surfaces compared to 3% H2O2. Cell death data were acquired by confocal fluorescence microscopy of each sample placed on a glass slide. […]

`OO` [3% H2O2, hydrogen peroxide] was tested, and the E. coli death was “approximately 60%”.
